The record followed here is patent US10780074B2, “Compounds and uses thereof” (Sunovion Pharmaceuticals Inc., priority 2017, dated 2020).

Where a name gives a salt, the structure may show the parent alone.

Experiment [1] has as its system MES-induced seizures. Nature of the experiment: Mouse Maximum Electroshock Assay (MES). The experiment is classed as in vivo. As to conditions: male CF-1 mice, fewer than 4 animals tested, given as N/F. The text has this: Mouse Maximum Electroshock Assay (MES)
Mouse Maximum Electroshock Assay (MES) is a model for generalized tonic-clonic seizures and provides an indication of a compound's ability to prevent seizure spread when all neuronal circuits in the brain are maximally active. These seizures are highly reproducible and are electrophysiologically consistent with human seizures. For all MES tests, 60 Hz of alternating current (50 mA in mice and 150 mA in rats) was delivered for 0.2 sec by corneal electrodes which had been primed with an electrolyte solution containing an anesthetic agent (0.5% tetracaine HCl). An animal was considered “protected” from MES-induced seizures upon abolition of the hindlimb tonic extensor component of the seizure. Initial screen for anticonvulsant activity in the MES was performed with N=4 male CF-1 mice/dose/time point. The default doses and time-points were 3 and 30 mg/kg at 0.25 and 0.5 hr following administration. Quantification of the ED50 was conducted at the time of peak effect (TPE). To determine the TPE, groups of N=4 mice were treated with the investigational compound at 0.25, 0.5, 1.0, 2.0 and 4.0 hrs prior to MES testing, or based on time-points from prior studies. […] Quantitation of the ED50 was conducted the same as described for mice above.

The subject of experiment [2] is behaviors of compound-treated mice. The experiment can be described thus: Neuropharmacological Assay (SmartCube). Format: in vivo. The procedure, abridged:
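Mice dosed i.p. 15 min before testing, with compound in N-methyl-2-pyrrolidone/PEG/propylene glycol, were video-recorded and algorithmically compared with reference-drug behavioral signatures. This gave class-match probabilities (antidepressant, anxiolytic, etc.) at the most efficacious of 3 doses. MED was defined as the dose with ≥50% total activity, usually tested across 0.3–30 mpk.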

[3] abbreviates: i.p. 15 min before behavioral test, most efficacious dose(s) of 3 doses.

As to `CNC[C@@H]1OCCc2c(-c3cnco3)cccc21` (single isomer, unassigned) [Compound 96, hydrochloride salt], in experiment [1], the “Seizure protection at 30 mg/kg (animals protected/animals tested)” value was 2/2 animals tested. Moreover, in experiment [2] (Mus musculus, ip, 0.25 h, dose having 50% or more total activity in SmartCube, i.p., read-out: MED (minimal effective dose)), the minimal effective dose was at most 3 mg/kg. In experiment [2] (setting [3]), the “AD: ADHD (probability that activity matches class)” value is recorded as “++ (5% ≤ ++ <25%)”, the “AG: analgesic (probability that activity matches class)” value was “+ (LOQ ≤ + <5%)”, the “AX: anxiolytic (probability that activity matches class)” value is on record as “+++ (25% ≤ +++ <50%)” and the “CE: cognitive enhancer (probability that activity matches class)” value is “+ (LOQ ≤ + <5%)”. In experiment [2] (setting [3]), the “DP: anti-depressant (probability that activity matches class)” value is reported as “++++ (50% ≤ ++++)”, the “MS: mood stabilizer (probability that activity matches class)” value is on record as “+ (LOQ ≤ + <5%)”, the “PS: anti-psychotic (probability that activity matches class)” value is “+ (LOQ ≤ + <5%)” and the “SD: sedative hypnotic (probability that activity matches class)” value is “++++ (50% ≤ ++++)”. Further, the “UN: uncharacterized CNS activity (probability that activity matches class)” value in experiment [2] (setting [3]) is given as “+ (LOQ ≤ + <5%)”.
